Key:
[1] = system: MIA-PaCa-2; assay: Human pancreatic cancer MIA-PaCa-2 subcutaneous model (34 days of treatment); conditions: for Tumor regression: treatment groups
Procedure: Tumor cells (i.e., MIA-PaCa-2, WiDr, H2122, colo205) were inoculated in nude mice's flank at 5×10^6 cells per mouse. The mice were grouped when the average volume of tumors reached about 100˜200 mm^3. “QW”=weekly dose. “Q3d”=dosed every third day. “BiW”=biweekly.
The bodyweight and major/minor axis of the mice were measured twice a week, and the tumor volumes were calculated using the formula: Tumor volume=1/2×major axis×minor axis. […] “T” represents average tumor volume of the experimental group (cm^3), and “C” represents average tumor volume of the control group (cm^3). The animals were monitored at all times. The bodyweight and major/minor axis or mice were measured twice a week. When the experiments were concluded, mice were sacrificed and tumors were extracted and weighted.
Tumor volumes were represented with average±standard error. Data analysis was done using Spss16.0, One-Way ANOVA, LSD (homogeneity of variance) or Dunnett T3 (non-homogeneity of variance). […] P<0.05 represents significant difference.

[2] = system: Daudi; assay: In vitro cytotoxic sensitivity of CTB006; format: cell-based, human; conditions: B cell lymphoma
[3] = HuCTB006 0.2 mg/kg i.v. QW × 6W
[4] = HuCTB006 0.6 mg/kg i.v. QW × 6W
[5] = repeated experiment, HuCTB006 0.2 mg/kg
[6] = repeated experiment, HuCTB006 0.6 mg/kg
[7] = repeated experiment, HuCTB006 1 mg/kg
[8] = repeated experiment, HuCTB006 10 mg/kg

Substance: HuCTB006: Monospecific humanized chimeric monoclonal antibody directed to TRAIL-R2 receptor; heavy chain SEQ ID NO: 14, light chain SEQ ID NO: 12
- T/C % (Calculated using tumor volumes) [1, 3]: 52.01%
- Time of tumor volume changed significantly [1, 3]: 13 days after first treatment
- Tumor Volume Mean ± SEM [1, 3]: 1.76 ± 0.15 cm^3
- Tumor weight Mean ± SEM [1, 3]: 0.79 ± 0.07 g
- T/C % (Calculated using tumor volumes) [1, 4]: 38.43%
- Tumor Volume Mean ± SEM [1, 4]: 1.27 ± 0.43 cm^3
- Tumor weight Mean ± SEM [1, 4]: 0.54 ± 0.21 g
- T/C % (Calculated using tumor volumes) ([1]; HuCTB006 1 mg/kg i.v. QW × 6W): 24.02%
- Tumor Volume Mean ± SEM ([1]; HuCTB006 1 mg/kg i.v. QW × 6W): 0.88 ± 0.35 cm^3
- Tumor weight Mean ± SEM ([1]; HuCTB006 1 mg/kg i.v. QW × 6W): 0.37 ± 0.19 g
- T/C % (Calculated using tumor volumes) ([1]; HuCTB006 10 mg/kg i.v. QW × 6W): 23.01%
- Time of tumor volume changed significantly ([1]; HuCTB006 10 mg/kg i.v. QW × 6W): 7^2 days after first treatment
- Tumor Volume Mean ± SEM ([1]; HuCTB006 10 mg/kg i.v. QW × 6W): 0.76 ± 0.22 cm^3
- Tumor weight Mean ± SEM ([1]; HuCTB006 10 mg/kg i.v. QW × 6W): 0.19 ± 0.08 g
- Tumor regression ([1]; first experiment): some animals of HuCTB006 groups showed tumor regression
- Tumor regression ([1]; repeated experiment): some animals of HuCTB006 groups also showed tumor regression
- TGI calculated based on the tumor volume [1, 5]: 59.52%
- TGI calculated based on the tumor weight [1, 5]: 72.38%
- TGI calculated based on the tumor volume [1, 6]: 85.35%
- TGI calculated based on the tumor weight [1, 6]: 91.39%
- TGI calculated based on the tumor volume [1, 7]: 87.52%
- TGI calculated based on the tumor weight [1, 7]: 92.02%
- TGI calculated based on the tumor volume [1, 8]: 58.99%
- TGI calculated based on the tumor weight [1, 8]: 71.93%
- Bodyweights of mice ([1]; treatment groups over the time): slow increase over the time
- In vitro cytotoxic sensitivity of CTB006 [2]: Non-responder
